Test results published in patent publication US9006440B2, “Furopyridine derivatives” (Merck Patent GmbH, priority 2010, dated 2015).
pIC50: −log10 of the molar value.

Columns and labels:
Type in all cases: biochemical
Syk = molecular target: T1, Syk (Homo sapiens, UniProt P43405); test: Syk enzyme assay (SYK flash plate assay / Caliper mobility shift)
T1 construct: purchased BPS Bioscience, CA, USA
Procedure: The kinase assay is performed either as 384-well Flashplate assay (for e.g. Topcount measurement) or as 384-well Image-Flashplate assay (for LEADseeker measurement).
2.5 nM SYK, 400 nM Biotin-Aha-Aha-KEDPDYEWPSAKK
and 10 μM ATP (spiked with 0.3 μCi 33P-ATP/well) are incubated in a total volume of 50 μl (60 mM Hepes, 10 mM MgCl2, 1.2 mM Dithiothreitol, 0.02% Brij35, 0.1% BSA, pH 7.5) with or without test compound for 1 hours at 30° C. The reaction is stopped with 25 μl 200 mM EDTA. After 30 Min at 30° C. the liquid is removed and each well washed thrice with 100 μl 0.9% sodium chloride solution. Non-specific reaction is determined in presence of 0.1 μM Staurosporine. Radioactivity is measured with Topcount (when using Flashplates) or with LEADseeker (when using Image-Flashplates) respectively. Results (e.g. IC50-values) are calculated with program tools provided by the IT-department (e.g. Symyx Assay Explorer, Genedata Screener). Enzymatic Assays Using the Caliper LifeSciences Technology
(§1) The assays described here are performed on the Caliper Life Sciences LC3000 system This technology provides data on enzyme activity via measurement of the relative amounts of phosphorylated or unphosphorylated fluorescently labelled substrate peptide at the end of an enzymatic reaction. These different states of peptide are resolved by applying a potential difference across the sample. The presence of the charged phosphate group on the product (as opposed to the substrate) causes a different peptide mobility between the two peptides. This is visualized by excitation of the fluorescent label on the substrate and product peptides and represented as peaks within the analysis software.
(§2) In order to measure inhibitor activity of kinase inhibitors on this technology, a TTP Mosquito liquid handling instrument is used to place 0.25 ul of the appropriate concentration of inhibitor in 100% DMSO (for a dose response curve calculation) into each well of a 384-well plate. To this reaction components are added to a final volume of 25 ul. The table below indicates the sequences and concentrations for the assays described in this report. Standard components are 1 mM DTT (Sigma, D0632), 1 mM MgCl2 (Sigma, M1028), 100 mM HEPES pH 7.5 (Calbiochem, 391338), 0.015% Brij-35 (Sigma, B4184).
(§3) The reaction is incubated for 90 min at 25 C, and then stopped by the addition of 70 ul of Stop buffer (100 mM HEPES pH 7.5, 0.015% Brij-35, 10 mM EDTA (Sigma, E7889)).
(§4) The plate is read on a Caliper LC 3000 in an Off-Chip mobility shift assay format, on a 12-sipper chip. Unphosphorylated substrate and phosphorylated product peptide resolve as separate peaks allowing direct measurement of percentage of conversion of substrate to product. The percent conversion can be plotted against concentration of inhibitor to produce a sigmoidal dose response curve, from which an IC50 can be calculated using GeneData Condoseo or a similar product.

KDR = molecular target: T2, KDR (Homo sapiens, UniProt P35968); test: KDR enzymatic assay (Caliper LifeSciences technology)
T2 construct: purchased BPS Bioscience, CA, USA
Procedure: as §1, §2, §3, §4

SRC = molecular target: T3, SRC (Homo sapiens, UniProt P12931); test: Src enzymatic assay (Caliper LifeSciences technology)
T3 construct: purchased Carna Bioscience, Kobe, Japan
Procedure: as §1, §2, §3, §4

T3 sequence (P12931 whole entry): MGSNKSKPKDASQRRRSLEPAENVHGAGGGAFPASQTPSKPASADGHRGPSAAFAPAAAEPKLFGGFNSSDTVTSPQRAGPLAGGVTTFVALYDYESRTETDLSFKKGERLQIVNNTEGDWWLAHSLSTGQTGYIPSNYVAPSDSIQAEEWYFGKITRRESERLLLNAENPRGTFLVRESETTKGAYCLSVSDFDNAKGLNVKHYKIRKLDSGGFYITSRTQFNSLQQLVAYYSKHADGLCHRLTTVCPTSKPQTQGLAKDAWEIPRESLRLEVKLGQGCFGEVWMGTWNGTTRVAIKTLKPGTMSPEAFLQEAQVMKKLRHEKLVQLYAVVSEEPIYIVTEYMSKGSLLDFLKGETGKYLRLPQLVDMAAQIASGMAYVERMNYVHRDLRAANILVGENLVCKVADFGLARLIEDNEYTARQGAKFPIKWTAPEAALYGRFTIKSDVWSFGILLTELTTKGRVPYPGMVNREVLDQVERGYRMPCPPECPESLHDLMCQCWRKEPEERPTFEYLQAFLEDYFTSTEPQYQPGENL
T2 sequence (P35968 20-1356): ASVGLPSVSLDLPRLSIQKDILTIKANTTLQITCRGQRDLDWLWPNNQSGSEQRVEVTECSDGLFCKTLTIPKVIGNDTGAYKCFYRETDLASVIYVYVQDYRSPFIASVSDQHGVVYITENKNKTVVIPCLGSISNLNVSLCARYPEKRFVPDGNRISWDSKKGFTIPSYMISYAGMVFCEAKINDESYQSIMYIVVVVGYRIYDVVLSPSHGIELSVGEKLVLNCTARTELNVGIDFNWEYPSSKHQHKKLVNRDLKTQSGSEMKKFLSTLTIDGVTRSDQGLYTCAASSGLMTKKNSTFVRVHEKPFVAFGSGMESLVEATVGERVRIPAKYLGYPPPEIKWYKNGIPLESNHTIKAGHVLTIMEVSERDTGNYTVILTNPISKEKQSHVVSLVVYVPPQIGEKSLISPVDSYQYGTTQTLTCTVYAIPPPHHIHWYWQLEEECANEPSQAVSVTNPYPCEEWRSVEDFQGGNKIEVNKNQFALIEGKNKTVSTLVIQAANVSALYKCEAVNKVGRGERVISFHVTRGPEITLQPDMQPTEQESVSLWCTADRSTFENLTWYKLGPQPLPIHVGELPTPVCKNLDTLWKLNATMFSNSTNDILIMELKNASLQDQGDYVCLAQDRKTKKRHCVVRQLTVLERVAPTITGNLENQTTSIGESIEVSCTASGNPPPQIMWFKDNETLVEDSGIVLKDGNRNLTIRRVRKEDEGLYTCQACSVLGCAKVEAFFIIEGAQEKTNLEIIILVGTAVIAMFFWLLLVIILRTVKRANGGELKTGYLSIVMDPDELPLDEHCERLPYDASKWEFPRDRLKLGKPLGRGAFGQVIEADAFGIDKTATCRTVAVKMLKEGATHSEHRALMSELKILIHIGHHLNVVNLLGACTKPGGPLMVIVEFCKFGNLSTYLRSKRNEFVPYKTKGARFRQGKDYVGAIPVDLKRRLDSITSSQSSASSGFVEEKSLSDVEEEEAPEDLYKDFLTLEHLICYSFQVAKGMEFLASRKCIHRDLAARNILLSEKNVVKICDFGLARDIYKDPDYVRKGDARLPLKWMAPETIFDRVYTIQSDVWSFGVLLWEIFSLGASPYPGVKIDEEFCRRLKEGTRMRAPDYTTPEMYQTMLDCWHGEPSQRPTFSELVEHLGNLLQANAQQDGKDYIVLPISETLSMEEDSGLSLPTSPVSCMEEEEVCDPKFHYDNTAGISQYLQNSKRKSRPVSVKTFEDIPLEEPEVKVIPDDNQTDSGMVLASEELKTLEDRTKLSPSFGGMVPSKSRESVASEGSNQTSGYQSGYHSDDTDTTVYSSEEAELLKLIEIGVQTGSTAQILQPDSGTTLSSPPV

SMILES	pIC50 (Syk)	pIC50 (KDR)	pIC50 (SRC)
COc1ccc(-c2cc3nccc(Nc4ccc5[nH]ccc5c4C)c3o2)cc1 [Compound B47, [2-(4-Methoxy-phenyl)-furo[3,2-b]pyridin-7-yl]-(4-methyl-1H-indol-5-yl)-amine]	4.30 to 5.52	5.52 to 6.52	5.52 to 6.52
Cc1c(Nc2ccnc3cc(-c4ccccc4)oc23)ccc2[nH]ccc12 [Compound B21, (4-Methyl-1H-indol-5-yl)-(2-phenyl-furo[3,2-b]pyridin-7-yl)-amine]	5.52 to 6.52	5.52 to 6.52	> 6.52
COc1cc(-c2cc3nccc(-c4cccc(C(=O)NC5CCNC5)c4)c3o2)cc(OC)c1OC (stereo not shown) [Compound A66, N-pyrrolidin-3-yl-3-[2-(3,4,5-trimethoxyphenyl)furo[3,2-b]pyridin-7-yl]benzamide]	> 6.52	–	5.52 to 6.52
COc1cc(-c2cc3nccc(-c4c(F)cccc4OC)c3o2)cc(OC)c1OC [Compound C119]	> 6.52	–	4.30 to 5.52
COc1cc(-c2cc3nccc(-c4cccc(C(=O)NCC5CCCN5)c4)c3o2)cc(OC)c1OC (stereo not shown) [Compound C11]	> 6.52	–	4.30 to 5.52
COc1cc(-c2cc3nccc(-c4cccc(NC(C)=O)c4)c3o2)cc(OC)c1OC [Compound B72, N-(3-(2-(3,4,5-Trimethoxyphenyl)furo[3,2-b]pyridin-7-yl)phenyl)acetamide]	5.52 to 6.52	–	4.30 to 5.52
COc1cc(-c2cc3nccc(-c4cccc(C(=O)N5CCC(N)C5)c4)c3o2)cc(OC)c1OC (stereo not shown) [Compound A67, (3-aminopyrrolidin-1-yl)-[3-[2-(3,4,5-trimethoxyphenyl)furo[3,2-b]pyridin-7-yl]phenyl]methanone]	5.52 to 6.52	–	5.52 to 6.52
COc1cc(C(=O)N[C@@H]2CCCC[C@@H]2N)cc(-c2ccnc3cc(-c4cc(OC)c(OC)c(OC)c4)oc23)c1 [Compound C170]	> 6.52	–	> 6.52
COc1ccc(OC)c(-c2cc3nccc(-c4cnn(C)c4)c3o2)c1 [Compound C140]	> 6.52	–	5.52 to 6.52
O=C(Nc1cccc(-c2cc3nccc(-c4ccccc4)c3o2)c1)[C@@H]1CCCN1 [Compound C31]	5.52 to 6.52	5.52 to 6.52	–
COc1cc(-c2ccnc3cc(-c4cc(OC)c(OC)c(OC)c4)oc23)ccn1 [Compound A29, 7-(2-Methoxy-pyridin-4-yl)-2-(3,4,5-trimethoxy-phenyl)-furo[3,2-b]pyridine]	> 6.52	5.52 to 6.52	–
COc1ccc(-c2ccnc3cc(-c4cc(OC)c(OC)c(OC)c4)oc23)c(OC)c1 [Compound A28, 7-(2,4-Dimethoxy-phenyl)-2-(3,4,5-trimethoxy-phenyl)-furo[3,2-b]pyridine]	> 6.52	5.52 to 6.52	–
COc1cc(-c2cc3nccc(-c4cc(O)cc(C(=O)NCCN)c4)c3o2)cc(OC)c1OC [Compound C149]	> 6.52	–	5.52 to 6.52
CC(C)(O)c1ccc(-c2cc3nccc(-c4ccc(C(C)(C)O)cc4)c3o2)cc1 [Compound B45, 2-(4-{2-[4-(1-Hydroxy-1-methyl-ethyl)-phenyl]-furo[3,2-b]pyridin-7-yl}-phenyl)-propan-2-ol]	5.52 to 6.52	5.52 to 6.52	–
COc1cc(-c2cc3nccc(-c4ccc(CN)cc4)c3o2)cc(OC)c1OC [Compound A53, 4-[2-(3,4,5-Trimethoxy-phenyl)-furo[3,2-b]pyridin-7-yl]-benzylamine]	> 6.52	5.52 to 6.52	–
Cn1cc(-c2ccnc3cc(-c4ccc(S(C)(=O)=O)cc4)oc23)cn1 [Compound C34]	5.52 to 6.52	4.30 to 5.52	–
Cn1cc(-c2ccnc3cc(-c4ccc5[nH]ccc5c4)oc23)cn1 [Compound C18]	5.52 to 6.52	5.52 to 6.52	–
Cn1cc(-c2ccnc3cc(-c4ccc(OCC(O)CN5CCOCC5)cc4)oc23)cn1 (stereo not shown) [Compound C37]	5.52 to 6.52	5.52 to 6.52	–
CNC(=O)c1ccc(-c2ccnc3cc(-c4cc(OC)c(OC)c(OC)c4)oc23)cc1 [Compound A13, N-Methyl-4-[2-(3,4,5-trimethoxy-phenyl)-furo[3,2-b]pyridin-7-yl]-benzamide]	> 6.52	5.52 to 6.52	–
